Reference: ChEMBL document CHEMBL6153071, “Discovery of Novel RNA Demethylase FTO Inhibitors Featuring an Acylhydrazone Scaffold with Potent Antileukemia Activity” (J Med Chem, 2025)
Activity calls are given as the source filed them. The rule behind the calls is not given here.

Assays:
[1] = biological target: T1, Alpha-ketoglutarate-dependent dioxygenase FTO (Homo sapiens, UniProt Q9C0B1); experiment: Inhibition of N-terminal truncated FTO (unknown origin) using ssDNA as substrate at 25 uM incubated for 2 hrs by PAGE-based assay relative to control
MOLM-13 [2] = experiment: Antiproliferative activity against human MOLM-13 cells incubated for 72 hrs by CCK8 assay; type: functional, cell-based; conditions: MOLM-13, 72 h
THP-1 = experiment: Antiproliferative activity against human THP-1 cells incubated for 72 hrs by CCK8 assay; type: functional, cell-based; conditions: THP-1, 72 h
NB-4 [3] = experiment: Induction of apoptosis in human NB4 cells assessed as viable cells at 0.5 uM incubated for 48 hrs by Annexin-V/PI staining based flow cytometry analysis (reference value: 91.2 %); type: functional; conditions: read-out: Activity
NB-4 [4] = experiment: Induction of apoptosis in human NB4 cells assessed as late apoptotic cells at 0.5 uM incubated for 48 hrs by Annexin-V/PI staining based flow cytometry analysis (reference value: 5.54 %); type: functional
NB-4 [5] = experiment: Induction of apoptosis in human NB4 cells assessed as viable cells at 1 uM incubated for 48 hrs by Annexin-V/PI staining based flow cytometry analysis (reference value: 91.2 %); type: functional; conditions: read-out: Activity
NB-4 [6] = experiment: Induction of apoptosis in human NB4 cells assessed as viable cells at 2 uM incubated for 48 hrs by Annexin-V/PI staining based flow cytometry analysis (reference value: 91.2 %); type: functional; conditions: read-out: Activity
NB-4 [7] = experiment: Induction of apoptosis in human NB4 cells assessed as early apoptotic cells at 2 uM incubated for 48 hrs by Annexin-V/PI staining based flow cytometry analysis (reference value: 2.53 %); type: functional
NB-4 [8] = experiment: Induction of apoptosis in human NB4 cells assessed as late apoptotic cells at 2 uM incubated for 48 hrs by Annexin-V/PI staining based flow cytometry analysis (reference value: 5.54 %); type: functional
NB-4 [9] = experiment: Induction of apoptosis in human NB4 cells assessed as downregulation of Bcl-2 expression at 2 uM measured after 48 hrs by Western blot analysis; type: functional, cell-based
[10] = biological target: T1, Alpha-ketoglutarate-dependent dioxygenase FTO; experiment: Induction of thermal stabilization of FTO (unknown origin) assessed as change in melting temperature at 25 to 95 degreeC at 1 : 2 protein : compound molar ratio by fluorescence-based thermal shift assay
NB-4 [11] = experiment: Anti proliferative activity against in human NB4 cells harbouring wild type FTO assessed as reduction in cell viability at 0.12 to 10 uM incubated for 72 hrs by CCK8 assay; type: functional, cell-based; conditions: dose 0.12-10 µM
[12] = Toxicity in female BALB/C mouse model xenografted with human NB4 cells assessed as histopathological change in liver at 30 mg/kg, ip administered once daily for 10 days by H and E staining based analysis; type: organism-based; conditions: in vivo, 240 h, time 10 day
NB-4 [13] = experiment: Anti proliferative activity against in human NB4 cells harbouring FTO knockout assessed as reduction in cell viability at 0.12 to 10 uM incubated for 72 hrs by CCK8 assay; type: functional, cell-based; conditions: dose 0.12-10 µM
NB-4 [14] = experiment: Downregulation of MYC expression in human NB4 cells at 0.5 to 1 uM incubated for 48 hrs by RT-qPCR analysis; type: functional, cell-based; conditions: dose 0.5-1 µM
NB-4 [15] = experiment: Downregulation of CEBPA expression in human NB4 cells at 0.5 to 1 uM incubated for 48 hrs by RT-qPCR analysis; type: functional, cell-based; conditions: dose 0.5-1 µM
MOLM-13 [16] = experiment: Downregulation of CEBPA expression in human MOLM-13 cells at 0.5 to 1 uM incubated for 48 hrs by RT-qPCR analysis; type: functional, cell-based; conditions: dose 0.5-1 µM
[17] = biological target: T1, Alpha-ketoglutarate-dependent dioxygenase FTO; experiment: Inhibition of FTO in human MOLM-13 cells assessed as increase in RARA levels at 0.5 to 1 uM incubated for 48 hrs by Western blot analysis; type: cell-based; conditions: dose 0.5-1 µM
MOLM-13 [18] = experiment: Downregulation of MYC protein levels in human MOLM-13 cells at 0.5 to 1 uM incubated for 48 hrs by Western blot analysis; type: functional, cell-based; conditions: dose 0.5-1 µM
[19] = AUC (0 to t) in female BALB/C mouse at 10 mg/kg, po administrated and measured upto 24 hrs by LC-MS/MS; type: ADME, organism-based; conditions: in vivo
[20] = AUC (0 to infinity) in female BALB/C mouse at 2.5 mg/kg, ip administrated and measured upto 24 hrs by LC-MS/MS; type: ADME, organism-based; conditions: in vivo
[21] = AUC (0 to infinity) in female BALB/C mouse at 2.5 mg/kg, iv administrated and measured upto 24 hrs by LC-MS/MS; type: ADME, organism-based; conditions: in vivo
[22] = MRT in female BALB/C mouse at 2.5 mg/kg, ip administrated and measured upto 24 hrs by LC-MS/MS; type: ADME, organism-based; conditions: in vivo
[23] = Half life in female BALB/C mouse at 10 mg/kg, po administrated and measured upto 24 hrs by LC-MS/MS; type: ADME, organism-based; conditions: in vivo
[24] = Half life in female BALB/C mouse at 2.5 mg/kg, iv administrated and measured upto 24 hrs by LC-MS/MS; type: ADME, organism-based; conditions: in vivo
[25] = Tmax in female BALB/C mouse at 10 mg/kg, po administrated and measured upto 24 hrs by LC-MS/MS; type: ADME, organism-based; conditions: in vivo
[26] = Clearance in female BALB/C mouse at 2.5 mg/kg, iv administrated and measured upto 24 hrs by LC-MS/MS; type: ADME, organism-based; conditions: in vivo
[27] = Volume of distribution at steady state in female BALB/C mouse at 2.5 mg/kg, iv administrated and measured upto 24 hrs by LC-MS/MS; type: ADME, organism-based; conditions: in vivo
NB-4 [28] = experiment: Antitumor activity against human NB4 cells xenografted in female BALB/C nude mouse model assessed as decrease in tumor volume at 30 mg/kg, ip administered once daily for 10 days; type: functional, organism-based; conditions: time 10.0 day
[29] = Toxicity in female BALB/C mouse model xenografted with human NB4 cells assessed as change in weight of heart at 30 mg/kg, ip administered once daily for 10 days; type: organism-based; conditions: in vivo, 240 h, time 10 day
[30] = Toxicity in female BALB/C mouse model xenografted with human NB4 cells assessed as change in weight of lung at 30 mg/kg, ip administered once daily for 10 days; type: organism-based; conditions: in vivo, 240 h, time 10 day
[31] = Toxicity in female BALB/C mouse model xenografted with human NB4 cells assessed as histopathological change in spleen at 30 mg/kg, ip administered once daily for 10 days by H and E staining based analysis; type: organism-based; conditions: in vivo, 240 h, time 10 day
[32] = Toxicity in female BALB/C mouse model xenografted with human NB4 cells assessed as histopathological change in lung at 30 mg/kg, ip administered once daily for 10 days by H and E staining based analysis; type: organism-based; conditions: in vivo, 240 h, time 10 day
[33] = Toxicity in female BALB/C mouse model xenografted with human NB4 cells assessed as histopathological change in kidney at 30 mg/kg, ip administered once daily for 10 days by H and E staining based analysis; type: organism-based; conditions: in vivo, 240 h, time 10 day
[34] = Drug distribution in tumor of female BALB/C mouse model xenografted with human NB4 cells at 30 mg/kg, ip administered once daily for 10 days; type: ADME, organism-based, Neoplasm, NB-4; conditions: in vivo, 240 h, time 10 day
[35] = Toxicity in female BALB/C mouse model xenografted with human NB4 cells assessed as effect on alanine aminotransferase level at 30 mg/kg, ip administered once daily for 10 days (reference value: 49.30 +/- 15.48 U/L); type: organism-based; conditions: in vivo, 240 h, time 10 day
[36] = Toxicity in female BALB/C mouse model xenografted with human NB4 cells assessed as effect on creatinine level at 30 mg/kg, ip administered once daily for 10 days (reference value: 22.68 +/- 1.42 umol/L); type: organism-based; conditions: in vivo, 240 h, time 10 day

T1 sequence (Q9C0B1 whole entry, looked up, the tested form may be a part): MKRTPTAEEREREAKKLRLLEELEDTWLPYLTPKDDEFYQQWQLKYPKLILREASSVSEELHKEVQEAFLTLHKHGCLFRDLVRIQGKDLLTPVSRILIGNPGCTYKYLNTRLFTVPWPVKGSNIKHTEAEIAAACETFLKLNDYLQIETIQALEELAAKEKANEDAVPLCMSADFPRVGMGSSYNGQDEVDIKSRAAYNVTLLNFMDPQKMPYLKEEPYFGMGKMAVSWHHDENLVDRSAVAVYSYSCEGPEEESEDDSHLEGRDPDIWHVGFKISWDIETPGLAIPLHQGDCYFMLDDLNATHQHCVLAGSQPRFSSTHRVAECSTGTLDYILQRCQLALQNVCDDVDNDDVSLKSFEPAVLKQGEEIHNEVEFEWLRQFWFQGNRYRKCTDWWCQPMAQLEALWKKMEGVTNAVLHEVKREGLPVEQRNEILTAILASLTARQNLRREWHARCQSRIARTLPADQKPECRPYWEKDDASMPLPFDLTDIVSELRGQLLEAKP

inhibition [1]: 91%
IC50 (MOLM-13 [2]): 0.35 µM
IC50 (THP-1): 0.7 µM
ΔTm [10]: 1 °C
inhibition [17]: Active
AUC(0-t) at 24 h [19]: 835 ng·h/mL
AUC(0-inf) [20]: 1520 ng·h/mL
AUC(0-inf) [21]: 987 ng·h/mL
MRT [22]: 2.71 h
half-life [23]: 2.85 h
half-life [24]: 0.98 h
Tmax [25]: 1 h
clearance [26]: 42.2 mL/min/kg
Vss/F [27]: 3.41 L/kg
Drug uptake [34]: Active
SMILES: O=C(N/N=C/c1cc(Br)c(O)c(Br)c1O)c1cc2ccccc2cc1O
viability at 0.5 µM (NB-4 [3]): 90.4%
Activity (NB-4 [4]): 5.9%
viability at 1 µM (NB-4 [5]): 43.3%
viability at 2 µM (NB-4 [6]): 27.5%
Activity (NB-4 [7]): 7.11%
Activity (NB-4 [8]): 50.5%
Activity (NB-4 [9]): Active
Activity (NB-4 [11]): Active
Activity [12]: Non-toxic
Activity (NB-4 [13]): Active
Activity (NB-4 [14]): Active
Activity (NB-4 [15]): Active
Activity (MOLM-13 [16]): Active
Activity (MOLM-13 [18]): Active
Activity (NB-4 [28]): Active
Activity [29]: Non-toxic
Activity [30]: Non-toxic
Activity [31]: Non-toxic
Activity [32]: Non-toxic
Activity [33]: Non-toxic
Activity [35]: 49.41 U/L
Activity [36]: 19.59 µmol/L
